We go through two molecules from article PMC9518248, “Inhibition of Toxoplasma gondii by 1,2,4-triazole-based compounds: marked improvement in selectivity relative to the standard therapy pyrimethamine and sulfadiazine” (Journal of Enzyme Inhibition and Medicinal Chemistry, 2022).

Values after ≈ are worked out from the molar mass of the structure shown. “Also recorded” adds a separate entry of the source.

For one data set, the system named is T. gondii RH-GFP. As to the kind of experiment: Antiparasitic assay: T. gondii RH-GFP proliferation in Hs27 cells. The format is cell-based, Toxoplasma gondii.
Data set [1] relates to T. gondii tachyzoites of the RH-GFP strain. The experiment in a line: Toxoplasma tachyzoites invasion assay (Assay A). The note with it: 3 h pre-treatment at 35.35, 70.70 and 176.75 μg/mL, then 24 h treatment-free.
Experimental: The Hs27 cells were cultured on Lab-Tek™ 4-well Chamber Slides (Nunc) (5 × 10^4 cells/500 μL per well).
Then, the cells were washed to remove extracellular parasites and parasite culture medium (without any compounds) was added for 24 h.
In both assays as the control, Hs27 cells were infected, but not treated. After subsequent 24 h of incubation (Assay A and B), the slides were washed with sterile PBS, fixed with formaldehyde solution (252549, Sigma-Aldrich), 3.7% in PBS for 20 min, and stained with DAPI for 10 min (1 mg/mL, ThermoFisher Scientific, Waltham, MA). Microscopic analysis of 100 cells in turn, comprised of counting the infected cell ratio and tachyzoites per each parasitophorous vacuoles of infected cell, was performed using a fluorescent microscope (Axio Scope.A1, Carl Zeiss, Germany) at a magnification ×1000. For image processing ZEISS ZEN Microscope Software version 3.1 (Oberkochen, Germany) was used. Three independent experiments on triplicate chamber slides using the same conditions for both assays were performed.
The subject of data set [2] is human glioblastoma T98G cells. The experiment in a line: Cytotoxicity against glioblastoma cells (MTT). The format is cell-based. The note with it: 24 h. As for the experimental part:
(§1) Cytotoxic effect of 20b was evaluated using glioblastoma (T98G) cells obtained from the American Type Culture Collection (Manassas, VA). Cells were cultured in Dulbecco’s Modified Eagle’s Medium (DMEM-high glucose) (Sigma Aldrich, St. Louis, MO), supplemented with 10% heat inactivated FBS, penicillin (100 U/mL), and streptomycin (100 μg/mL) (Sigma Aldrich, St. Louis, MO). Cells were maintained in a humidified atmosphere of 5% CO2 and 95% air at 37 °C. Stock solutions of the investigated compounds (20b and temozolomide) were prepared by dissolving solid substances in a sterile DMSO. T98G glioblastoma cells were seeded into 96-well sterile plates at a density of 1 × 10^5cells/mL. After 24 h of incubation, the medium was removed from each well and then cells were incubated for the next 24 h with different concentrations of the investigated compounds (10, 25, 35, 50, and 100 µg/mL) in the medium containing 2% FBS. Viability of T98G cells was evaluated using MTT assay, whose principle is based on the conversion of 3–(4,5-dimethylthiazol-2-yl)-2,5-diphenyltetrazolium bromide (MTT) into dark-blue formazan crystals. In brief, after 24 h incubation of cells with varying concentrations of the tested compounds, culture medium was removed from the plate. Cells were washed with PBS, and then 100 µL of medium containing 10% MTT solution (5 mg/mL) was added to each well. After 3 h incubation, 100 µL (per well) of 10% SDS buffer solution was added to solubilise formazan crystals. After overnight incubation the absorbance was measured at 570 nm using a microplate reader (Epoch, BioTek Instruments, Winooski, VT). Experiments were repeated three times, and the measurements in each experiment were run in quadruplicate. Viability of the investigated cells was expressed as % of the viability of the untreated cells.

The nature of data set [3]: Cytotoxicity against glioblastoma cells (MTT). It counts as cell-based, human. The note with it: human, T98G glioblastoma cells, MTT, read-out: Viability of T98G cells (% of control ± SD). As for the experimental part: as §1
Data set [4] deals with T. gondii tachyzoites of the RH-GFP strain. As to the kind of experiment: Intracellular Toxoplasma tachyzoites proliferation assay (Assay B). The format is cell-based, Toxoplasma gondii. The following applies: 3 h infection, then 24 h treatment at 35.35, 70.70, 176.75 μg/mL; dose-dependent.
A short description of the next data set: PAMPA-BBB assay. The format is in vitro ADME. As for the experimental part: BBB permeability of 20b was investigated using a parallel artificial membrane permeability assay (PAMPA) method. The PAMPA system, consisted of a 96-well microfilter plate, was divided into two chambers: a donor at the bottom and an acceptor at the top, separated by a 120-μm-thick microfilter disc coated with BBB lipid solution (Pion, Inc., Billerica, MA). The solutions of 20b were prepared in dimethylsulphoxide (DMSO) at 4 mg/mL concentration and then diluted with Prisma buffer (pH = 7.4) to obtain the donor drug solution with the final nominal concentration of 20 μg/mL. Then, 180 μL of the donor solution were added to the donor wells. Subsequently, each filter membrane of the top plate was coated with 5 μL BBB-1 lipid solution (Pion Inc.) and the acceptor well was filled with 200 μL of Brain Sink Buffer (BSB). The acceptor plate and the donor plate were sandwiched together and incubated at 37 °C for 180 min.
The permeability coefficient value (Pe) was calculated by using the following equation: Pe=−ln(1−CA/Cequilibrium)/S×(1/VD+1/VA)×t where VD – donor volume, VA – acceptor volume, Cequilibrium – equilibrium concentration, Cequilibrium=CD×VD+CA×VA/VD+VA, CD – donor concentration, CA – acceptor concentration, S – membrane area, and t – incubation time (in seconds).

Data set [5] deals with Tyrosinase (TYR) from mushrooms. As to the kind of experiment: Inhibition of tyrosinase activity assay. It counts as biochemical. The following applies: for Diphenolase activity: substrate DOPA; for Monophenolase activity: substrate L-tyrosine. As for the experimental part:
Tyrosinase (TYR) from mushrooms ([…], Sigma) was used in our study. We analysed inhibition of 20 b on both monophenolase and diphenolase activity of TYR. All compound dilutions, both substrate L-tyrosine (Tyr) and levodopa (DOPA), and TYR were prepared in 50 mM phosphate buffer (pH 6.5). […] Firstly, the substrate and compound were added to a 96-well flat-bottom plate (Nunc MaxiSorp^TM, Roskilde, Denmark), next TYR was added and the initial absorbance (A0) was measured spectrophotometrically at 492 nm. Then, the plate was incubated at 25 °C for 30 min. After incubation, the amount of dopachrome produced in the reaction mixture was determined spectrophotometrically at 492 nm (A30) using the multi-mode microplate reader SpectraMax® i3. As 100% TYR activity samples without addition of compound, were used. The average results from three experiments are shown.

Another data set relates to Human Hs27 cells. As to the kind of experiment: Genotoxic activity, single cell gel electrophoresis (comet assay). The format is cell-based. The note with it: 24 h, concentration equal to IC50Tg.
In data set [6] the test system is Human red blood cells (RBCs). The experiment in a line: Haemolytic activity determination. It counts as cell-based. The note with it: at the concentration equal to its IC50Tg. As for the experimental part: (§2) Human red blood cells (RBCs) concentrate was obtained from the Regional Blood Donation and Transfusion Centre (Lublin, Poland). RBCs concentrate (5 mL) was washed three times with sterile PBS and centrifuged at 500 g for 3 min. […] The amount of free haemoglobin in supernatants was measured spectrophotometrically at 405 nm. Negative and positive controls were performed by incubating RBCs with sterile PBS and 0.1% Triton-X, respectively. Each experiment was run in triplicate.

Data set [7] can be described thus: Haemolytic activity determination. The format is cell-based. The note with it: human RBCs, 37 °C, 30 min, read-out: Haemolysis (%). As for the experimental part: as §2
Setting [8] is: 1 µM, % of activity without compound.

Experimental for Human Hs27 cells: All the procedures performed were in line with the manufacturer’s protocol. Human Hs27 cells, previously exposed for 24 h to the compound, were combined with liquefied low melting Agarose at 37 °C and transferred onto the OxiSelect comet slides. After storing for 15 min at 4 °C, the slides were immersed in a pre-chilled Lysis Buffer (for 45 min at 4 °C) and Alkaline Solution (for 30 min at 4 °C). Afterwards, the Alkaline Solution was replaced with pre-chilled TBE electrophoresis solution. After immersing for 5 min, the slides were put into the horizontal electrophoresis chamber and covered with TBE electrophoresis buffer. The electrophoresis was run for 15 min at 1 volt/cm. Finally, DNA was stained with Vista Green DNA Dye for 15 min at room temperature and observed under fluorescence microscope (Olympus BX63, Tokyo, Japan). The images of cells were captured using XM10 digital camera (Olympus). The DNA damage was measured quantitatively using OpenComet software. At least 50 randomly selected images were used in each analysis.

In general, viability refers to the share of living cells, or the viability signal relative to a control. Regarding `COc1ccc(-n2c(-c3[nH]cnc3C)n[nH]c2=S)cc1` [20b], the “selectivity (SI) relative to PYR” value in the data set with T. gondii RH-GFP (SI of compound vs SI of PYR) is 11 fold. Further, the “selectivity (SI) relative to SDZ” value in the data set with T. gondii RH-GFP (SI of compound vs SI of SDZ) stood at 160 fold. Also, the “selectivity (SI) relative to TRI” value in the data set with T. gondii RH-GFP (SI of compound vs SI of TRI) is recorded as 4 fold. Besides, in the data set with T. gondii RH-GFP (Toxoplasma gondii, T. gondii RH-GFP in Hs27 cells, 96 h, values above highest tested concentration extrapolated, read-out: IC50Tg), the IC50 was 35.4 µg/mL (≈ 123 µM). In the data set with T. gondii RH-GFP (selectivity index, CC30 (L929)/IC50Tg), the SI was 70.72. Moreover, in data set [1], the “parasite invasion: percentage of infected cells” value is reported as “did not cause significant reductions in percentage of infected cells”. Further, the “reduction of T98G cell viability” value in data set [2] (10 µg/mL) is recorded as around 6%; in [2] (100 µg/mL) it was around 24%. Also, the viability at 24 h, 10 µg/mL in [3] (10 µg/mL) is 94.2 ± 2.06%. The viability at 24 h, 25 µg/mL in data set [3] (25 µg/mL) was 92 ± 3.27%. Besides, in data set [3] (35 µg/mL), the viability at 24 h, 35 µg/mL worked out at 87.15 ± 0.55%. Moreover, the viability at 24 h, 50 µg/mL in [3] (50 µg/mL) came out at 82.1 ± 1.73%. The viability at 24 h, 100 µg/mL in data set [3] (100 µg/mL) came out at 76.26 ± 0.74%. In addition, in [4], the “intracellular proliferation: size of PV and number of tachyzoites per PV” value was “significant reduction in both size of the PV and number of intra vacuolar tachyzoites”. For the same molecule, the BBB permeation classification result in the data set “PAMPA-BBB assay” (CNS+ if Pe > 5.19, CNS− if Pe < 2.07 (× 10^−6 cm·s^−1)) is on record as “centrally active”. Further, the Papp at 180 min, 20 μg/mL in the data set “PAMPA-BBB assay” (pH 7.4, 37 °C, 180 min, read-out: permeability coefficient Pe) was 34.9 ± 2.73 ×10⁻⁶ cm/s. The Diphenolase activity in [5] (setting [8]) worked out at 94.6 ± 3.3%; in [5] (10 µM), 99.6 ± 0.7%; in data set [5] (25 µM) it was 92.7 ± 1.7%; in data set [5] (50 µM) it was 91.2 ± 1.2%; in data set [5] (100 µM) it was 75.3 ± 7.8%; in data set [5] (200 µM) it was 52.7 ± 6.8%. The Diphenolase activity in [5] (400 µM) was determined as 25.7 ± 12.8%. Besides, the Monophenolase activity in data set [5] (setting [8]) is recorded as 101.76 ± 4.69%; in data set [5] (10 µM), 99.01 ± 1.79%; in [5] (25 µM), 92.97 ± 2.54%; in [5] (50 µM), 90.66 ± 4.29%; in data set [5] (100 µM), 70.81 ± 2.18%; in data set [5] (200 µM) it was 46.79 ± 4.31%. In addition, the Monophenolase activity in [5] (400 µM) is listed as 23.09 ± 8.35%. Also, the “inhibitory effect on tyrosinase activity” value in data set [5] (at concentrations below 50 µM) was below 10%. Also, the “% DNA in comet tail” value in the data set on Human Hs27 cells was determined as 3.38 ± 0.45%. Further, the “genotoxic effect (DNA damage)” value in the data set with Human Hs27 cells was “no induction of DNA damage; also recorded: no genotoxic effect”. The haemolytic activity result in data set [6] is “no specific haemolytic activity; also recorded: no specific haemolytic changes”. The hemolysis at 30 min, 5 µg/mL in data set [7] (2% suspension of human red blood cells, 5 µg/mL) was 0.038 ± 0.007%. The hemolysis at 30 min, 10 µg/mL in data set [7] (2% suspension of human red blood cells, 10 µg/mL) worked out at 0.104 ± 0.042%. Moreover, the hemolysis at 30 min, 35 µg/mL in data set [7] (2% suspension of human red blood cells, 35 µg/mL) stood at 0.183 ± 0.086%.

With `CC(C)(C)CC(C)(C)c1ccc(OCCO)cc1` [Triton-X, reference compound], the hemolysis at 30 min, 0.1 % in [7] (0.1%, positive control) turned out to be 99.78 ± 0.34%.
